Test results reported in PMC10641813 (Journal of Medicinal Chemistry, 2023).
Values joined by “and” are separate entries in the source; they are usually repeats but may differ in a detail not shown here. Identical values can stand only once.

What was measured:
[1] = tested on: cleaved PARP and cleaved caspase-3 in HCT116 cells; test: Markers of apoptosis in HCT116 cells (Western blot); assay type: cell-based, human; details: increasing concentrations, 72 h
Text: Detection of cleaved poly(ADPribose) polymerase (PARP) by antibodies is considered a prominent marker of apoptosis. […] Overexpression of the 24 kDa N-terminal fragment inhibits DNA repair and ADPribose formation and stimulates apoptosis,[45] with consequent increase of PARP full-length/cleaved ratio and a darker cleaved band. During apoptosis, caspase-3 is a major cause of proteolysis. Detection of cleaved caspase-3 is also a reliable marker of apoptosis since it allows the quantification of cells that are dying or have died by apoptosis.[46]
(§1) Western blot was performed as previously described.[79] […] Cell lysates were subjected to SDS-polyacrylamide gel electrophoresis and transferred to a nitrocellulose membrane. The membrane was blocked, washed, and incubated with primary antibodies at 37 °C overnight [anti-β-catenin (D10A8) XP mAb #8480 (Cell Signaling), anti-cMyc #9402S (Cell Signaling), anticleaved caspase 3 (Asp175) #9661 (Cell Signaling), and anti-PARP #9542S (Cell Signaling)]. After the membrane was washed, it was incubated with secondary antibodies at 37 °C for 30 min. The membrane was washed again with Tris-buffered saline/Tween-20, and the samples were exposed and imaged using the WesternBright ECL solution (#K-12045-D50 Advansta).

[2] = tested on: MDA-MB 231 cells; test: Inhibition of MDA-MB 231 TNBC cell growth (hypoxia, cell counting); details: 72 h, 1% O2
Protocol: (§7) Cells were grown in Dulbecco’s modified Eagle’s medium (D-MEM) supplemented with 10% fetal bovine serum (FBS) at 37 °C with 5% CO2. In all experiments, 300,000 cells were plated in 9 cm^2 dishes and exposed to test compound dissolved in DMSO (0.1% final concentration) at the indicated concentrations. […] Cells were kept at low passage, returning to the original frozen stocks every 3–4 months. Hypoxic culture conditions were realized in the presence of 1% O2 and 5% CO2. […] After 72 h of incubation at 37 °C with 1% O2 and 5% CO2, cells were trypsinized, and cell counting was performed with the MACSQuant analyzer (Miltenyi Biotec).[76]

[3] = tested on: HT29 cells; test: Viability of HT29 cells with DOX alone or coincubated with 15 (WST-1); assay type: cell-based, human; details: 15 at 1, 10, 100 nM coincubated with 5 μM DOX, 72 h
Protocol: (§2) Cells were seeded in 96-well plates.

[4] = tested on: HCT116 cells; test: Inhibition of growth of HCT116 cells (MTT); details: read-out: IC50 HCT116; human colorectal carcinoma cells; combinations: each compound at its IC50 concentration
Protocol: (§8) In drug combination studies, each compound was used at the corresponding IC50 concentration.
(§9) Cells were grown in Dulbecco’s modified Eagle’s medium (D-MEM) supplemented with 10% fetal bovine serum (FBS) at 37 °C with 5% CO2. In all experiments, 300,000 cells were plated in 9 cm^2 dishes and exposed to test compound dissolved in DMSO (0.1% final concentration) at the indicated concentrations. […] Cells were kept at low passage, returning to the original frozen stocks every 3–4 months.

[5] = tested on: human primary T lymphocytes; test: Toxicity on human primary T lymphocytes (annexin V/propidium iodide flow cytometry); details: 30 μM, 72 h, healthy/normal T cells
Protocol: After 72 h, the frequency of late apoptotic cells was assayed by staining with annexin V and propidium iodide.
Potential toxicity on healthy cells was evaluated by treating human primary T lymphocytes from two healthy donors with 30 μM 15 or with a control vehicle (DMSO). Healthy donors’ peripheral blood mononuclear cells (PBMCs) were isolated by Lymphoprep (Nycomed) gradient centrifugation. T lymphocytes were negatively selected from PBMCs using magnetic Dynabeads Untouched Human T Cells Kit (Thermo Fisher Scientific) following the manufacturer’s instructions. Apoptotic cell death was evaluated using APC Annexin-V Apoptosis Detection Kit with PI (Thermo Fisher Scientific). […] Cells were then stained using annexin-V/APC and propidium iodide according to the manufacturer’s instruction. Cell populations were acquired using a FACS Canto II flow cytometer (BD Biosciences). Flow cytometric analysis was performed using Flow Jo Flow Cytometric Analysis Software.

[6] = tested on: HT29, HT29/DX, MDCK and MDCK/P-gp cells; test: Cytotoxicity of 15 alone (WST-1 viability); details: 1–100 nM 15 alone, 72 h, four cell lines
Protocol: Cell lines were obtained from the American Tissue Culture Collection (ATCC), unless specified otherwise. Cells were grown in Dulbecco’s modified Eagle’s medium (D-MEM) supplemented with 10% fetal bovine serum (FBS) at 37 °C with 5% CO2. In all experiments, 300,000 cells were plated in 9 cm^2 dishes and exposed to test compound dissolved in DMSO (0.1% final concentration) at the indicated concentrations. […] Cells were kept at low passage, returning to the original frozen stocks every 3–4 months. […] Human chemosensitive HT29 colon cancer cells were purchased from ATCC (Manassas, VA). […] MDCK and MDCK/P-gp (a gift of Prof. P. Borst, NKI-AVL Institute, Amsterdam, The Netherlands) were grown in DMEM high glucose supplemented with 10% FBS, 1% penicillin, 1% v/v penicillin–streptomycin, and 1% v/v glutamine. […] Cells were seeded in 96-well plates. […] Cell viability was evaluated using the WST-1 assay (Sigma-Merck), as per the manufacturer’s instructions, using a Packard EL340 microplate reader (Bio-Tek Instruments, Winooski, VT). The absorbance units of the untreated cells were considered 100%; the absorbance units of the other experimental conditions were expressed as a percentage versus the absorbance units of the untreated cells.

[7] = tested on: Wnt target genes Fgf20 and Sall4; test: Fgf20 and Sall4 mRNA levels in HCT116 cells (qPCR); assay type: cell-based, human
Protocol: Total mRNA was isolated from cells with TriReagent (#R2050–1–200 Zymo Research), and complementary DNA (cDNA) was synthesized by the Sensifast cDNA synthesis kit (#BIO-65054 Bioline). Quantitative PCR was performed with SensiFast Sybr Lo-Rox Mix (#BIO-94020 Bioline), using an Applied Biosystems ViiA 7 Real-Time PCR System instrument (doi: 10.1038/s41389-019-0175-6) and the following amplification primers: • β-actin forward: […]; • β-actin reverse: […]; • Fgf20 forward: […]; • Fgf20 reverse: […]; • Sall4 forward: […]; • Sall4 reverse: […].

[8] = tested on: HT29/DX cells; test: Viability of HT29/DX cells with DOX alone or coincubated with 15 (WST-1); assay type: cell-based, human; details: 15 at 1, 10, 100 nM coincubated with 5 μM DOX, 72 h
Protocol: as §2

[9] = tested on: MDCK/P-gp cells; test: Intracellular accumulation of DOX in MDCK/P-gp cells; assay type: cell-based, canine; details: 5 μM DOX 3 h, 15 at 1, 10, 100 nM
Protocol: (§3) In this model, also at the highest concentration (100 nM), the compound was not able to fully restore the accumulation of the drug to the intracellular level of MDCK cells, which were devoid of P-gp.
(§4) Figure S5. Dose-dependent viability of HT29 and HT29/DX (A), MDCK and MDCK/P-gp (B) cells, incubated with increasing concentrations (0-10 µM) of 15 for 72 h, measured with a spectrophotometric assay. Data are means ± SD (n = 3). **p<0.01, ***p<0.001: versus untreated cells (“0”). […]
(§5) drug retention was measured spectrofluorimetrically. Data are means ± SD (n=3)., ***p<0.001: versus HT29 or […]

[10] = tested on: SW620 cells; test: Inhibition of growth of SW620 cells (XTT); details: read-out: IC50 SW620; human colorectal carcinoma cells; combinations: each compound at its IC50 concentration
Protocol: as §8, §9

[11] = target: T1, P-gp (Homo sapiens, UniProt P08183); test: P-gp ATPase activity, protein immunopurified from MDCK/P-gp cells; details: for Pgp activity (rate of ATP hydrolysis) MDCK-Pgp: 3 h, single replicates of I-III exp
T1 sequence (P08183 whole entry): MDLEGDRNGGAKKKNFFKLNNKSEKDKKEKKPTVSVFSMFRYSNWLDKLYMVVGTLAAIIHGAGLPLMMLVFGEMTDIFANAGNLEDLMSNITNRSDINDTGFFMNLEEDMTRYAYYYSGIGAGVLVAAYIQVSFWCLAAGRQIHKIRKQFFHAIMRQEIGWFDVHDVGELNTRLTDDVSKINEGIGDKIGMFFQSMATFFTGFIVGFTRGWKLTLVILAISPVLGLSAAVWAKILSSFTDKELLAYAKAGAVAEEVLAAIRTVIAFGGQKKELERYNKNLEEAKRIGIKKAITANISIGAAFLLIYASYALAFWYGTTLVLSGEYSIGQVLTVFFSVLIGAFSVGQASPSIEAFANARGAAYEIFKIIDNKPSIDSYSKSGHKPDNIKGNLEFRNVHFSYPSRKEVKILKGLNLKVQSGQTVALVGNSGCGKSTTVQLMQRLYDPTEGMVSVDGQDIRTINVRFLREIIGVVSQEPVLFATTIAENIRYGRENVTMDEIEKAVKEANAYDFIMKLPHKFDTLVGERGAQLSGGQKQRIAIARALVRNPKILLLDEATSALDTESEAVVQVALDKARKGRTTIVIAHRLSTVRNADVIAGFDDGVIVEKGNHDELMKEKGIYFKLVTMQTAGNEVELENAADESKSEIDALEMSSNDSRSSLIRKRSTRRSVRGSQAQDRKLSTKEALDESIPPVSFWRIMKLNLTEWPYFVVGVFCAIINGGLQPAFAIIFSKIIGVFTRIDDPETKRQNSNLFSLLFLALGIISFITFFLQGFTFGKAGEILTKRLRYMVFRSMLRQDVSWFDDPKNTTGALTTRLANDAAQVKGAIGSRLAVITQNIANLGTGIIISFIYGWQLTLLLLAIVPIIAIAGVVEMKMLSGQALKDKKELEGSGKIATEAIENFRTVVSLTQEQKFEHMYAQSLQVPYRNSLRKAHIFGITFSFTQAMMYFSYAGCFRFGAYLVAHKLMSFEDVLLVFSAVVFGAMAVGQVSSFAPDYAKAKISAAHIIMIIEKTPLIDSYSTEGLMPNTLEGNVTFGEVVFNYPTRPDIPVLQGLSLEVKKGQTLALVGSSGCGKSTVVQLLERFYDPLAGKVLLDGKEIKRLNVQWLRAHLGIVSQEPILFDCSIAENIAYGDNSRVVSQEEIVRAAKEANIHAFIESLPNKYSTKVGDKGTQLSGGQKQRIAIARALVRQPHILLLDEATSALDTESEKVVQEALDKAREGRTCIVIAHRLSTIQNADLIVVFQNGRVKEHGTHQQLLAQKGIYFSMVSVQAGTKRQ
Protocol: (§10) 100 μg of each immunopurified protein was incubated for 30 min at 37 °C with 50 μL of the reaction mixture (25 mM Tris/HCl, 3 mM ATP, 50 mM KCl, 2.5 mM MgSO4, 3 mM dithiothreitol, 0.5 mM EGTA, 2 mM ouabain, 3 mM NaN3; pH 7.0). […] After 30 min incubation at room temperature, the absorbance of the phosphate hydrolyzed from ATP was measured at 620 nm, using a Packard EL340 microplate reader. The absorbance was converted into nmoles hydrolyzed phosphate (Pi)/min/mg protein, according to the titration curve previously prepared.

[12] = tested on: NCI/ADR-RES cells; test: Inhibition of growth of NCI/ADR-RES DOX-resistant cells; assay type: cell-based, human; details: DOX-resistant cell line derived from OVCAR-8, 96 h
Protocol: (§6) ; 11 and 15, NCI/ADR-RES and OVCAR-8 cells) to 4.8 (19, OVCAR-8 cells). […] . […] Cells were seeded in 96-well plates.

[13] = tested on: tubulin; test: Tubulin assembly (polymerization) assay; assay type: biochemical; details: at 20 μM
Protocol: The reaction mixtures contained 0.8 M monosodium glutamate (pH 6.6 with HCl in a 2 M stock solution), 10 μM tubulin, 4% (v/v) DMSO, and varying concentrations of compound. […] The extent of the reaction was measured.

[14] = target: T1, P-gp; test: P-gp ATPase activity, protein immunopurified from HT29/DX cells; details: for Pgp activity (rate of ATP hydrolysis) HT29/DX: 3 h, single replicates of I-III exp
Protocol: as §10

[15] = tested on: MDCK/P-gp cells; test: Viability of MDCK/P-gp cells with DOX alone or coincubated with 15 (WST-1); assay type: cell-based, canine; details: 15 at 1, 10, 100 nM coincubated with 5 μM DOX, 72 h
Protocol: as §2

[16] = tested on: MDCK cells; test: Viability of MDCK cells with DOX alone or coincubated with 15 (WST-1); assay type: cell-based, canine; details: MDCK cells, 15 at 1, 10, 100 nM coincubated with 5 μM DOX, 72 h
Protocol: as §2

[17] = tested on: OVCAR-8 cells; test: Inhibition of growth of OVCAR-8 cells; assay type: cell-based, human; details: ovarian tumor cell line 8, 96 h
Protocol: as §6

[18] = tested on: β-catenin and MYC in HCT116 cells; test: β-Catenin and c-Myc levels in HCT116 cells (Western blot); assay type: cell-based, human; details: LiCl 50 mM, 24 h
Protocol: as §1

[19] = tested on: HT29/DX cells; test: Intracellular accumulation of DOX in HT29/DX cells; assay type: cell-based, human; details: 5 μM DOX 3 h, 15 at 1, 10, 100 nM
Protocol: as §3, §4, §5

[20] = target: T2, hCA IX (Homo sapiens, UniProt Q16790); test: Stopped flow CO2 hydrase assay, hCA IX; assay type: biochemical; details: stopped flow technique, mean from three assays
T2 construct: made in house

[21] = tested on: BT-549 cells; test: Inhibition of BT-549 TNBC cell growth (hypoxia, cell counting); details: 72 h, 1% O2
Protocol: as §7

[22] = tested on: Wnt/β-catenin signaling pathway; test: Wnt reporter assay (TOPFlash/FOPFlash luciferase) in HEK293T cells; details: HEK 293T cells, LiCl 50 mM
Protocol: HEK293T cells were seeded at 2 × 10^4 cells/cm^2 in triplicate in a 24-well plate.

[23] = tested on: MCF-7 cells; test: Inhibition of growth of MCF-7 cells; assay type: cell-based, human; details: human nonmetastatic breast cancer epithelial cells
Protocol: as §6

[24] = tested on: SW480 cells; test: Inhibition of growth of SW480 cells (XTT); details: read-out: IC50 SW480; human colorectal carcinoma cells; combinations: each compound at its IC50 concentration
Protocol: as §8, §9

Substance: 4-(3-Phenyl-4-(3,4,5-trimethoxybenzoyl)-1H-pyrrol-1-yl)benzenesulfonamide [Compound 15]
- cleaved PARP and cleaved caspase-3 levels [1]: increments of cleaved PARP and cleaved caspase-3
- Inhibition of MDA-MB 231 TNBC cell growth [2]: potent antiproliferative effect
- cell viability compared with DOX alone [3]: did not further reduce cell viability
- IC50 [4]: 8700 ± 1400 nM
- increase in cell death compared to the control vehicle [5]: 6–8%
- cell viability [6]: > 75%
- expression of Wnt target genes Fgf20 and Sall4 [7]: significantly reduced the expression
- cell viability compared with DOX alone [8]: decreased cell viability in a dose-dependent manner
- intracellular accumulation of DOX [9]: increasing DOX accumulation
- IC50 [10]: 23800 ± 1400 nM
- Pgp activity (rate of ATP hydrolysis) MDCK-Pgp ([11]; 15 at 1 nM): 5.2 nmol Pi × min-1 × mg protein-1 and 5.6 nmol Pi × min-1 × mg protein-1 (2×) and 5.4 nmol Pi × min-1 × mg protein-1 (2×) and 5.5 nmol Pi × min-1 × mg protein-1 and 5.9 nmol Pi × min-1 × mg protein-1 and 5.1 nmol Pi × min-1 × mg protein-1 and 5.3 nmol Pi × min-1 × mg protein-1
- Pgp activity (rate of ATP hydrolysis) MDCK-Pgp ([11]; 15 at 10 nM): 3.4 nmol Pi × min-1 × mg protein-1 (3×) and 3.2 nmol Pi × min-1 × mg protein-1 (3×) and 3.0 nmol Pi × min-1 × mg protein-1 and 3.9 nmol Pi × min-1 × mg protein-1 and 3.8 nmol Pi × min-1 × mg protein-1
- Pgp activity (rate of ATP hydrolysis) MDCK-Pgp ([11]; 15 at 100 nM): 2.1 nmol Pi × min-1 × mg protein-1 and 2.4 nmol Pi × min-1 × mg protein-1 (2×) and 2.3 nmol Pi × min-1 × mg protein-1 and 1.6 nmol Pi × min-1 × mg protein-1 and 1.8 nmol Pi × min-1 × mg protein-1 (2×) and 1.7 nmol Pi × min-1 × mg protein-1 and 1.5 nmol Pi × min-1 × mg protein-1
- effect on P-gp activity ([11]; MDCK/P-gp, starting at 10 nM): reduced P-gp activity
- IC50 [12]: 1900 nM and 1900 to 2100 nM and 2100 nM
- inhibition of tubulin assembly [13]: partial inhibition
- Pgp activity (rate of ATP hydrolysis) HT29/DX ([14]; 15 at 1 nM): 0.7 nmol Pi × min-1 × mg protein-1 (2×) and 0.8 nmol Pi × min-1 × mg protein-1 (3×) and 0.9 nmol Pi × min-1 × mg protein-1 and 0.6 nmol Pi × min-1 × mg protein-1 (2×) and 1.0 nmol Pi × min-1 × mg protein-1
- Pgp activity (rate of ATP hydrolysis) HT29/DX ([14]; 15 at 10 nM): 0.4 nmol Pi × min-1 × mg protein-1 (3×) and 0.6 nmol Pi × min-1 × mg protein-1 (3×) and 0.5 nmol Pi × min-1 × mg protein-1 (2×) and 0.7 nmol Pi × min-1 × mg protein-1
- Pgp activity (rate of ATP hydrolysis) HT29/DX ([14]; 15 at 100 nM): 0.1 nmol Pi × min-1 × mg protein-1 and 0.2 nmol Pi × min-1 × mg protein-1 (3×) and 0.3 nmol Pi × min-1 × mg protein-1 (5×)
- effect on P-gp activity ([14]; HT29/DX, starting at 10 nM): reduced P-gp activity
- cell viability compared with DOX alone [15]: decreased cell viability in a dose-dependent manner
- cell viability compared with DOX alone [16]: did not further reduce cell viability
- IC50 [17]: 1900 to 2100 nM and 1900 nM
- β-catenin and MYC levels [18]: marked reduction
- intracellular accumulation of DOX [19]: strong dose-dependent increase
- Ki [20]: 24.1 nM
- Inhibition of BT-549 TNBC cell growth [21]: significantly impaired cell growth
- TOP reporter activity ([22]; increasing concentrations, 24 h): significant and dose-dependent inhibition
- FOP reporter activity ([22]; negative control reporter): did not significantly prevent the activity
- IC50 [23]: 1900 to 2100 nM and 1900 nM
- IC50 [24]: 17700 ± 1300 nM
